From US7435837B2, “Dihydrobenzofuranyl alkanamine derivatives and methods for using same” (Wyeth, priority 2003, dated 2008)
Like-named read-outs stand apart in the source and are kept apart here.

Legend:
[1] = target: T1, human 5-hydroxytryptamine-2C (h5-HT2C) receptor (Homo sapiens, UniProt P28335); experiment: [125I]DOI binding to membranes of CHO cells expressing the human 5-HT2C receptor; settings: [125I]DOI radioligand, CHO cell membranes, room temperature 60 min; read-out: 5-HT2C Affinity Ki
T1 construct: expressed in transfected cells; host or cells: CHO (Chinese Hamster Ovary) cells; membranes
T1 sequence (P28335 33-458): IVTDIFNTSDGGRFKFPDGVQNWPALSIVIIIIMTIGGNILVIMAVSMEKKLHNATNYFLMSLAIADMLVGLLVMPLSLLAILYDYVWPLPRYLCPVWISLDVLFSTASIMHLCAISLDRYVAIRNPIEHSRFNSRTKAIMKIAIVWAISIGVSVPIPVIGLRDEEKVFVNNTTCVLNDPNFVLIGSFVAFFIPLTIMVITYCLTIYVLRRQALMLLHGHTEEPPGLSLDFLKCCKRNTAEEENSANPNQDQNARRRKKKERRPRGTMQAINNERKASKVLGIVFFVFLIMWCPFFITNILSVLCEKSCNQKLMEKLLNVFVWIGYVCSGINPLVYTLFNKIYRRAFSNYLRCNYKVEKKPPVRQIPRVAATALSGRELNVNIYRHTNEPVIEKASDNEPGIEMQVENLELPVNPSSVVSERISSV

human 5-HT2C receptor = target: T2, human 5-HT2C receptor (Homo sapiens, UniProt P28335); experiment: 5-HT2C receptor-stimulated calcium mobilization (FLIPR) in CHO cells; assay type: cell-based; settings: for Emax: CHO; for EC50: calcium mobilization, CHO cells stably expressing human 5-HT2C, read-out: 5-HT2C Function EC50;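 on all read-outs here: Fluo-3-AM fluorescence read on FLIPR every 1 s, agonist added after 10 baseline reads, response taken as peak minus lowest raw fluorescence count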
T2 sequence (P28335 33-458): T1 sequence (P28335 33-458)

[2] = percentage of the response observed with a maximally effective concentration of 5-HT, read-out: 5-HT2C Function Emax (%)
[3] = read-out: 5-HT2C Function Emax (%), percentage of the response observed with a maximally effective concentration of 5-HT

Compound | Ki [1] | Emax (human 5-HT2C receptor; [2]) | EC50 (human 5-HT2C receptor) | Emax (human 5-HT2C receptor; [3])
CNCC1Cc2cccc(-c3c(Cl)cccc3Cl)c2O1 (racemic) [Example 433, (±)-[(N-methyl-1-[7-(2,6-dichlorophenyl)-2,3-dihydro-1-benzofuran-2-yl]methanamine] | 3.5 nM | 100% | 1 nM | –
CNCC1Cc2cc(F)cc(-c3ccccc3C)c2O1 (racemic) [Example 440, (±)-{[5-fluoro-7-(2-methylphenyl)-2,3-dihydro-1-benzofuran-2-yl]methyl}methylamine] | 1.2 nM | 100% | 9 nM | –
CNCC1Cc2cc(F)cc(-c3ccccc3OC)c2O1 (racemic) [Example 443, (±)-{[5-fluoro-7-(2-methoxyphenyl)-2,3-dihydro-1-benzofuran-2-yl]methyl}methylamine] | 4.8 nM | 90% | 5 nM | –
CNCC1Cc2cc(F)cc(-c3ccc(Cl)cc3Cl)c2O1 (racemic) [Example 445, (±)-[7-(2,4-dichlorophenyl)-5-fluoro-2,3-dihydro-1-benzofuran-2-yl]methyl}methylamine] | 0.48 nM | – | 1 nM | 90%
CNCC1Cc2cc(F)cc(-c3cc(F)ccc3F)c2O1 (racemic) [Example 448, (±)-{[7-(2,5-difluorophenyl)-5-fluoro-2,3-dihydro-1-benzofuran-2-yl]methyl}methylamine] | 7 nM | 70% | 78 nM | –
CNCC1Cc2cc(F)cc(-c3cc(Cl)ccc3Cl)c2O1 (racemic) [Example 449, (±)-{[7-(2,5-dichlorophenyl)-5-fluoro-2,3-dihydro-1-benzofuran-2-yl]methyl}methylamine] | 1 nM | 90% | 2 nM | –
CNCC1Cc2cc(F)cc(-c3c(Cl)cccc3Cl)c2O1 (racemic) [Example 454, (±)-{[7-(2,6-dichlorophenyl)-5-fluoro-2,3-dihydro-1-benzofuran-2-yl]methyl}methylamine] | 0.26 nM | – | 0.39 nM | 90%
CNCC1Cc2cc(F)cc(-c3cc(OC)ccc3C)c2O1 (racemic) [Example 456, (±)-{[5-fluoro-7-(5-methoxy-2-methylphenyl)-2,3-dihydro-1-benzofuran-2-yl]methyl}methylamine] | 4.1 nM | 100% | 50 nM | –
CNCC1Cc2cc(F)cc(-c3cccnc3)c2O1 (racemic) [Example 459, (±)-[(5-fluoro-7-pyridin-3-yl-2,3-dihydro-1-benzofuran-2-yl)methyl]methylamine] | 24 nM | 90% | 16 nM | –
CNCC1Cc2cc(C)cc(-c3ccccc3OC)c2O1 (racemic) [Example 477, (±)-{[7-(2-methoxyphenyl)-5-methyl-2,3-dihydro-1-benzofuran-2-yl]methyl}methylamine] | 6.7 nM | 80% | 9 nM | –
CNCC1Cc2cc(C)cc(-c3ccc(C)cc3)c2O1 (racemic) [Example 480, (±)-{[7-(4-methylphenyl)-5-methyl-2,3-dihydro-1-benzofuran-2-yl]methyl}methylamine] | 4.4 nM | 70% | 251 nM | –
CNCC1Cc2cc(C)cc(-c3ccc(F)cc3)c2O1 (racemic) [Example 482, (±)-{[7-(4-fluorophenyl)-5-methyl-2,3-dihydro-1-benzofuran-2-yl]methyl}methylamine] | 7 nM | 80% | 143 nM | –
CNCC1Cc2cc(C)cc(-c3ccc(OC)cc3)c2O1 (racemic) [Example 483, (±)-{[7-(4-methoxyphenyl)-5-methyl-2,3-dihydro-1-benzofuran-2-yl]methyl}methylamine] | 5 nM | 80% | 58 nM | –
CNCC1Cc2cc(C)cc(-c3ccc(Cl)cc3Cl)c2O1 (racemic) [Example 485, (±)-{[7-(2,4-dichlorophenyl)-5-methyl-2,3-dihydro-1-benzofuran-2-yl]methyl}methylamine] | 3 nM | 90% | 32 nM | –
CNCC1Cc2cc(C)cc(-c3cc(Cl)ccc3Cl)c2O1 (racemic) [Example 486, (±)-{[7-(2,5-dichlorophenyl)-5-methyl-2,3-dihydro-1-benzofuran-2-yl]methyl}methylamine] | 0.2 nM | 90% | 5 nM | –

Further compounds by falling Ki [1], results first:

Ki [1] | Emax (human 5-HT2C receptor; [2]) | EC50 (human 5-HT2C receptor) | Compound | Emax (human 5-HT2C receptor; [3])
38 nM | 50% | 740 nM | CNCC1Cc2cc(F)cc(-c3cc(C)ccc3OC)c2O1 (racemic) [Example 457, (±)-{[5-fluoro-7-(2-methoxy-5-methylphenyl)-2,3-dihydro-1-benzofuran-2-yl]methyl}methylamine] | –
24 nM | 80% | 153 nM | CNCC1Cc2cc(F)cc(-c3cc(C)ccc3C)c2O1 (racemic) [Example 452, (±)-{[7-(2,5-dimethylphenyl)-5-fluoro-2,3-dihydro-1-benzofuran-2-yl]methyl}methylamine] | –
22 nM | 80% | 200 nM | CNCC1Cc2cc(OC)cc(-c3ccccc3F)c2O1 (racemic) [Example 491, (±)-{[7-(2-fluorophenyl)-5-methoxy-2,3-dihydro-1-benzofuran-2-yl]methyl}methylamine] | –
21 nM | 80% | 89 nM | CNCC1Cc2cc(Cl)cc(-c3cccc(F)c3F)c2O1 (racemic) [Example 463, (±)-{[5-chloro-7-(2,3-difluorophenyl)-2,3-dihydro-1-benzofuran-2-yl]methyl}methylamine] | –
17 nM | 80% | 212 nM | CNCC1Cc2cc(F)cc(-c3cc(Cl)ccc3OC)c2O1 (racemic) [Example 458, (±)-{[7-(5-chloro-2-methoxyphenyl)-5-fluoro-2,3-dihydro-1-benzofuran-2-yl]methyl}methylamine] | –
11 nM | 70% | 225 nM | CNCC1Cc2cc(C)cc(-c3cccc(C)c3)c2O1 (racemic) [Example 478, (±)-{[7-(3-methylphenyl)-5-methyl-2,3-dihydro-1-benzofuran-2-yl]methyl}methylamine] | –
3.2 nM | 80% | 25 nM | CNCC1Cc2cc(C)cc(-c3ccccc3F)c2O1 (racemic) [Example 475, (±)-{[7-(2-fluorophenyl)-5-methyl-2,3-dihydro-1-benzofuran-2-yl]methyl}methylamine] | –
3 nM | 90% | 39 nM | CNCC1Cc2cc(C)cc(-c3c(C)cccc3C)c2O1 (racemic) [Example 489, (±)-{[7-(2,6-dimethylphenyl)-5-methyl-2,3-dihydro-1-benzofuran-2-yl]methyl}methylamine] | –
2.8 nM | 92% | 16 nM | CNCC1Cc2cccc(-c3cc(Cl)ccc3Cl)c2O1 (racemic) [Example 429, (±)-[(N-methyl-1-[7-(2,5-dichlorophenyl)-2,3-dihydro-1-benzofuran-2-yl]methanamine] | –
2.4 nM | 70% | 68 nM | CNCC1Cc2cc(F)cc(-c3ccccc3F)c2O1 (racemic) [Example 438, (±)-{[5-fluoro-7-(2-fluorophenyl)-2,3-dihydro-1-benzofuran-2-yl]methyl}methylamine] | –
1.5 nM | 80% | 75 nM | CNCC1Cc2cc(C)cc(-c3ccc(Cl)cc3)c2O1 (racemic) [Example 481, (±)-{[7-(4-chlorophenyl)-5-methyl-2,3-dihydro-1-benzofuran-2-yl]methyl}methylamine] | –
1 nM | 100% | 6 nM | CNCC1Cc2cc(C)cc(-c3c(Cl)cccc3Cl)c2O1 (racemic) [Example 490, (±)-{[7-(2,6-dichlorophenyl)-5-methyl-2,3-dihydro-1-benzofuran-2-yl]methyl}methylamine] | –
0.51 nM | 70% | 43 nM | CNCC1Cc2cc(C)cc(-c3cccc(OC)c3OC)c2O1 (racemic) [Example 484, (±)-{[7-(2,3-dimethoxyphenyl)-5-methyl-2,3-dihydro-1-benzofuran-2-yl]methyl}methylamine] | –
0.5 nM | 80% | 71 nM | CNCC1Cc2cc(C)cc(-c3cccc(Cl)c3)c2O1 (racemic) [Example 479, (±)-{[7-(3-chlorophenyl)-5-methyl-2,3-dihydro-1-benzofuran-2-yl]methyl}methylamine] | –
0.45 nM | 90% | 6 nM | CNCC1Cc2cc(F)cc(-c3ccccc3Cl)c2O1 (racemic) [Example 439, (±)-{[5-fluoro-7-(2-chlorophenyl)-2,3-dihydro-1-benzofuran-2-yl]methyl}methylamine] | –
0.2 nM | 100% | 5 nM | CNCC1Cc2cc(C)cc(-c3ccccc3Cl)c2O1 (racemic) [Example 476, (±)-{[7-(2-chlorophenyl)-5-methyl-2,3-dihydro-1-benzofuran-2-yl]methyl}methylamine] | –
